How the values were obtained:
receptor 5-HT4(c) = receptor 5-HT4(c) (Homo sapiens, UniProt Q13639); test: [3H]GR113808 radioligand binding, membranes of transiently transfected COS-7 cells; design: The entire coding region of the cDNAs of 5-HT4(a), 5-HT4(b), 5-HT4(c) and 5-T4(d) was subcloned; expressed in transfected cells; host or cells: COS-7 cells, transient, pRC/CMV vector; cDNA amplified from human brain and ileum RNA; conditions: read-out: Ki, competition for [3H]GR113808 binding
Method: (§1) The entire coding region of the cDNAs of 5-HT4(a), 5-HT4(b), 5-HT4(c) and 5-T4(d) was subcloned into a mammalian expression vector pRC/CMV (Invitrogen, Carlsbad, Calif.). The transfections were carried out using polyethyleneimine (PEI) as described in Boussif et al. (1995). The cells were transfected using a mixture of DNA and of PEI in a ratio of 20 μmol of PEI/mg of DNA in 0.9% NaCl. For the radioligand binding assays, the COS-7 cells were seeded into culture flasks of 1.5×10^4 mm^2 one day before the transfection, at a density of 1×10^7 cells/flask, incubated for six hours with plasmid DNA (150 μg/flask) and collected 48 hours after transfection. For the measurement of cAMP formation, the COS-7 cells were seeded onto twelve-well plates one day before transfection, at a density of 5×10^5 cells/well, incubated for six hours with plasmid DNA (4 to 8 μg/well according to the experiments) and assayed 24 hours after the transfection. The cells transfected with the receptor 5-HT4 cDNA constructs were compared with the “blank”-transfected cells, which were exposed to the unmodified pRC/CMV plasmid.
(§2) Each flask of cells intended for the radioligand binding assays was washed twice with a phosphate buffer (PBS). The cells were then scraped, collected and centrifuged at 300 g for five minutes. The pellet was resuspended in 2.5 ml of ice-cold HEPES buffer (50 mM, pH 7.4) and homogenized with an Ultraturax tissue grinder. The lysate was then centrifuged at 40,000 g for 20 minutes at 4° C. The resulting pellet was resuspended in 15 volumes of HEPES buffer (50 mM, pH 7.4). The membrane preparations were maintained in ice and used within two hours for radioligand binding assays. The protein concentrations were determined by the method of Lowry et al., 1951, using bovine serum albumin as standard.
(§3) The saturation studies were performed using [^3H] GR113808 at 9 different concentrations ranging from 0.01 to 3.5 nM. The tubes were incubated at 25° C. for 30 minutes. The reaction-was stopped by rapid filtration, under vacuum, through Whatman GF/B filter paper using the Brandel 48R cell harvester. The filters were presoaked in a solution of PEI (0.1%) to reduce the binding to the filters. The filters were then washed with an ice-cold buffer (50 mM Tris-HCl, pH 7.4) and placed in 4 ml of “ready safe” scintillation cocktail (Beckman, Fullerton, Calif.) overnight. The radioactivity was measured using a Beckman LS 6500 C liquid scintillation counter. The binding data were analysed by computer-assisted nonlinear regression analysis (Graph Pad Prism Program, Graph Pad Software, Inc., San Diego, Calif.).
(§4) The experiments correspond to the competition of various compounds for [^3H]GR113808 binding to membranes of transiently transfected COS-7 cells. […] The estimations of affinity are given as Ki values in nM, and are determined from IC50 values obtained by computer-assisted nonlinear curve analysis (GraphPad, Prism Software). The Ki values are representative of at least two determinations.

receptor 5-HT4(d) = receptor 5-HT4(d) (Homo sapiens, UniProt Q13639); test: as above; design: The entire coding region of the cDNAs of 5-HT4(a), 5-HT4(b), 5-HT4(c) and 5-T4(d) was subcloned; expressed in transfected cells; host or cells: COS-7 cells, transient, pRC/CMV vector; cDNA amplified from human brain and ileum RNA; conditions: read-out: Ki, competition for [3H]GR113808 binding
Method: as §1, §2, §3, §4

[1] = tested on: cells expressing the isoforms of the receptor 5-HT4; test: cAMP formation in transiently transfected COS-7 cells, statement for all isoforms together; assay type: cell-based, human; conditions: preincubation with 1 μM prior to 5-HT, COS-7 cells expressing the isoforms
Method: The entire coding region of the cDNAs of 5-HT4(a), 5-HT4(b), 5-HT4(c) and 5-T4(d) was subcloned into a mammalian expression vector pRC/CMV (Invitrogen, Carlsbad, Calif.). The transfections were carried out using polyethyleneimine (PEI) as described in Boussif et al. (1995). The cells were transfected using a mixture of DNA and of PEI in a ratio of 20 μmol of PEI/mg of DNA in 0.9% NaCl. […] The cells transfected with the receptor 5-HT4 cDNA constructs were compared with the “blank”-transfected cells, which were exposed to the unmodified pRC/CMV plasmid. […] The reaction was stopped by aspiration of the medium and addition of 500 μl of ice-cold ethanol. After one hour at room temperature, the cells were scraped, and everything was collected and freeze-dried. The pellet was resuspended in 350 μl of PBS and centrifuged for 5 min at 300 g. The cAMP was quantified in the supernatant using a radioimmunological assay (E.R.I.A. assay kit from Pasteur Diagnostics 79830). Student's t tests were carried out using the program Quick TEst.

receptor 5-HT4(b) = target: T1, receptor 5-HT4(b) (Homo sapiens, UniProt Q13639); test: cAMP formation in transiently transfected COS-7 cells; assay type: cell-based; conditions: COS-7, 1 μM, no agonist
T1 construct: The entire coding region of the cDNAs of 5-HT4(a), 5-HT4(b), 5-HT4(c) and 5-T4(d) was subcloned; expressed in transfected cells; host or cells: COS-7 cells, transient, pRC/CMV vector; cDNA amplified from human brain and ileum RNA
Method: as §1
To measure intracellular cAMP accumulation, the transiently transfected COS-7 cells were incubated, 24 hours after transfection, in Dulbecco's modified Eagle medium (DMEM) containing 5 mM theophylline, 10 mM HEPES and 10 μM pargyline for 15 minutes at 37° C., in the presence of 5% CO2. […] The reaction was stopped by aspiration of the medium and addition of 500 μl of ice-cold ethanol. After one hour at room temperature, the cells were scraped, and everything was collected and freeze-dried. The pellet was resuspended in 350 μl of PBS and centrifuged for 5 min at 300 g. The cAMP was quantified in the supernatant using a radioimmunological assay (E.R.I.A. assay kit from Pasteur Diagnostics 79830). Student's t tests were carried out using the program Quick TEst.

T1 sequence (Q13639 whole entry): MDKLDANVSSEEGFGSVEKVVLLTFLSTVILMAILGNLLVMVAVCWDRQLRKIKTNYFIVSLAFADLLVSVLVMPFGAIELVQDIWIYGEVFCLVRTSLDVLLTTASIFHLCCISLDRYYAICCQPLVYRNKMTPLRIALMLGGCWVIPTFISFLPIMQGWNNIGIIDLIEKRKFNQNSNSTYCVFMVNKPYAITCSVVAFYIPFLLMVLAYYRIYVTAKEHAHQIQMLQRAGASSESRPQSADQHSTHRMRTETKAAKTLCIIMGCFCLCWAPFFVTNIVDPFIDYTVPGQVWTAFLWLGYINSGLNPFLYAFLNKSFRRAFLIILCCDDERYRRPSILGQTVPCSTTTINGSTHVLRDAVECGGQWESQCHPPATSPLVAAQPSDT
receptor 5-HT4(d), sequence (Q13639 1-360 isoform Q13639-3): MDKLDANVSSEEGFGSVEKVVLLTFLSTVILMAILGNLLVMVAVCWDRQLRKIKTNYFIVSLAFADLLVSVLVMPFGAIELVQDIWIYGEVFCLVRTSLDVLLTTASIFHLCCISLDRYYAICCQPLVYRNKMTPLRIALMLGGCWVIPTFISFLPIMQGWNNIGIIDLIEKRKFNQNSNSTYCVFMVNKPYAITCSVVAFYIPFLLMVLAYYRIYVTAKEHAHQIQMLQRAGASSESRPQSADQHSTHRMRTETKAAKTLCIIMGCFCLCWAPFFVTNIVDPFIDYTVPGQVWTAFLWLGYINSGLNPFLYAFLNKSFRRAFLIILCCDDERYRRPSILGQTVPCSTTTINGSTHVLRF
receptor 5-HT4(c), sequence (Q13639 1-380 isoform Q13639-4): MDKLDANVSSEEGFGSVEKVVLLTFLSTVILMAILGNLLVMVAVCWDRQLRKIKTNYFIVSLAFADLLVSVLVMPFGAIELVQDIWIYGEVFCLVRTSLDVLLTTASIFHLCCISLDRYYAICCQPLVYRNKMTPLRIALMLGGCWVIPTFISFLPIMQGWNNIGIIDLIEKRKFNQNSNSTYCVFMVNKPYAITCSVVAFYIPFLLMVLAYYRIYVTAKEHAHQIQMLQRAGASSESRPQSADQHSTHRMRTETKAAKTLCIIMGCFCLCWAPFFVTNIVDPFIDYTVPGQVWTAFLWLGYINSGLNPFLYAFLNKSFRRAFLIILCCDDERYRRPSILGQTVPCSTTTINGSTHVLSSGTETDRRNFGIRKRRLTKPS

- Ki (receptor 5-HT4(c)): 0.61 ± 0.08 nM
- Ki (receptor 5-HT4(d)): 0.41 ± 0.1 nM
- effect on the basal cAMP levels (receptor 5-HT4(b)): no significant effect
Compound: COc1cc(N)c(Cl)cc1C(=O)OCCN1C[C@H](C)C[C@H](C)C1 [ML10375, 2-(cis-3,5-dimethyl-piperidino)ethyl 4-amino-5-chloro-2-methoxybenzoate]
- antagonism of the capacity of 5-HT (1 μM) to increase basal cAMP levels [1]: antagonizes

— patent US6506580B1, “Splice variants for human 5-HT4 serotonin receptor and their applications, in particular for screening” (Institut National de la Sante et de la Recherche Medicale …, priority 1997, dated 2003)
